How the values were obtained:
latent HIV expression = settings: more potent than prostratin; cited from earlier work
J-Lat 6.3 cells = test: Cell viability assay (flow cytometry light scatter), J-Lat 6.3 cells; format: cell-based
Experimental: (§1) Following stimulation, cells were cultured for 16 hours at 37° C. 90% humidity, 5% CO2. Cells were then analyzed by flow cytometry for viability.
(§2) Cells were scored as viable if they were detected in a characteristically “live” region of light scatter and defraction as measured by flow cytometry.
(§3) As described herein, it is known in the art that high concentrations of prostratin exert some toxic effects on cells. Thus, using the same experimental set-up as described in Example 2, above, cell viability was determined. Cell viability were quantitated as described above. Using J-Lat 6.3 cells and 8.4 T-cells, it was observed that 2 μM prostratin induced cell death in about 50% of the cells. […] In this experiment, cells were incubated with prostratin for about 20 hours, whereas J-Lat 6.3 cells and 8.4 T-cells (in FIGS. 2A and 2B) were incubated with prostratin for 36 hours.

J-Lat 8.4 T-cells = test: Cell viability assay (flow cytometry light scatter), J-Lat 8.4 T-cells; format: cell-based
Experimental: as §1, §2, §3

[1] = tested on: latent HIV expression in J-Lat 6.3 cells; test: HIV-LTR-driven expression of GFP (flow cytometry) in J-Lat 6.3 cells; format: cell-based; settings: 16 hours; for activation of latent HIV expression (GFP-positive cells): J-Lat 6.3 cells
Experimental: (§4) J-Lat 6.3, J-Lat 8.4 T-cells, and J-Lat 9.2 cells are Jurkat T cell lines containing integrated but transcriptionally latent HIV proviruses. These J-Lat cells contain wild-type Tat and TAR and appear to be highly representative of the latently infected cells present in vivo (Williams et al., 2004, J Biol Chem 279(40):42008-42017).
(§5) J-Lat 6.3 T cells, J-Lat 8.4 T-cells and J-Lat 9.2 T cells were obtained from Jordan et al., (Jordan et al., 2003, EMBO J 22(8):1868-1877). J-Lat cells were cultured in RPMI supplemented with 10% fetal calf serum (FCS) and penicillin/streptomycin and L-glutamine described (Williams et al., 2004, J Biol Chem 279(40):42008-42017; Williams et al., 2006, EMBO J 25:139-149).
(§6) The J-Lat T-cell clones used herein are infected with full-length HIV proviruses and contain the Aequorea victoria green fluorescent protein (GFP) gene in lieu of Net thus permitting epifluorescence monitoring of viral transcriptional activity. Under basal conditions, little or no GFP expression is detected; however, transcriptional activation of the latent provirus leads to GFP expression, which can be detected at the single-cell level by flow cytometry. Flow cytometry analysis and FACS was essentially performed as described (Williams et al., 2004, J Biol Chem 279(40):42008-42017).
(§7) Cells were analyzed for GFP-fluorescence and general viability characteristics on a FACSCalibur flow cytometer (Becton Dickinson). Data were analyzed with FlowJo (Treesoft) flow cytometry analysis software.
(§8) J-Lat 6.3 and 8.4 T-cells cultured in RPMI supplemented with 10% fetal calf serum (FCS) and penicillin/streptomycin were counted and adjusted to 1×10^6 cells/ml. 80 μl aliquots of J-Lat 6.3 and 8.4 T-cells, respectively, were pipetted in a 96-well u-bottomed plate. […] Then HIV-LTR-driven expression of GFP was assessed by flow cytometry using a Beckton Dickenson FACScalibur as described above. […] Cells with greater GFP fluorescence than a non-GFP expressing Jurkat control cells were considered GFP-positive.

J-Lat6.3kRed2 cells = test: Cell viability assay (flow cytometry light scatter), J-Lat6.3kRed2 cells; format: cell-based
Experimental: as §1, §2, §3
As described in Example 3 for TSA, the effect of valproic acid on blocking prostratin-induced cell death was analyzed using the same experimental set-up as described in Example 4.

[2] = tested on: latent HIV expression in J-Lat 6.3 cells; test: Tat transfection assay, latent HIV-driven GFP expression in J-Lat 6.3 cells; format: cell-based; settings: for effect on Tat-induced latent HIV-driven expression of GFP: coadministration with Tat (FLAG-Tat transfected cells), 16 hours, J-Lat 6.3 cells (FIG. 5)
Experimental: 10^6 J-Lat 6.3 cells cultured in RPMI+10% fetal calf serum (FCS) and penicillin/streptomycin were pelleted by centrifugation and resuspended in 0.4 mL RPMI without serum. Cell suspension was mixed with 1 μg of pMACS-kk H2kk expression vector DNA (Miltenyi), and 10 μg of pCMV4 (Andersson et al., 1989, J Biol Chem 264 (14):8222-8229), or 10 μg pCMV4-FLAG-Tat expression vector (gift of Eric Verdin), transferred to a 0.4 cm gap electroporation cuvette (Stratagene), and electroporated at 975 μF, […] for ˜25×10^−3 seconds. Electroporated cells were resuspended in 4 mL medium, and returned to cell culture for 48 hours. 90 μl aliquots of each sample were distributed to U-bottomed 96-well plates and 10 μl of 200 ng/mL TNF-α (Biosource), 10 μl of 1 mM Trichostatin A (Biomol), or 10 μl of RPMI. For 30′-pulse TNF-α stimulation experiments, 10 μl of 200 ng/mL TNF-α was added to 90 μl cell suspension for 30 minutes, cells were transferred to a V-bottomed 96 well plate and centrifuged at […] for 3 minutes. Supernatant was removed and replaced, and procedure was repeated 2×. Cells were resuspended in 100 μl fresh RPMI with 10% serum and penicillin/streptomycin. 16 hours after treatment, cells were pelleted by centrifugation, and resuspended in 50 μl PBS+1:100 dilution of streptavidin-conjugated anti-H2kk antibody. Samples were incubated 10 minutes, diluted in 200 μl PBS, pelleted by centrifugation, and supernatant removed. […] Samples were analyzed by flow cytometry using a Beckton Dickinson FACSCalibur. Cells were analyzed using FlowJo (TreeSoft) flow cytometry analysis software. Live cells were identified by characteristic light scatter and defraction and exclusively analyzed. Cells with APC fluorescence greater that untransfected cells stained with biotin-APC were considered to be H2kk-positive, and to have been successfully transfected. […]

[3] = tested on: latent HIV expression in J-Lat 8.4 T-cells; test: HIV-LTR-driven expression of GFP (flow cytometry) in J-Lat 8.4 T-cells; format: cell-based; settings: 16 hours; for activation of latent HIV expression (GFP-positive cells): J-Lat 8.4 T-cells
Experimental: as §4, §5, §6, §7, §8

[4] = tested on: latent HIV expression in J-Lat6.3kRed2 cells; format: cell-based
Experimental: In a similar experiment, J-Lat6.3kRed2 cells, a modified cell line derived from J-Lat6.3 containing an integrated kB-DsRed2 reporter, was used. J-Lat6.3kRed2 cells were counted and adjusted to 1×10^6 cells/ml. 80 μl aliquots were pipetted in a 96-well u-bottomed plate. Two-fold serial dilutions of 4, 2, and 1 μM trichostatin A (TSA) were made and added to the cells at final concentrations of 400 nM, 200 nM, and 100 nM, respectively. Three-fold serial dilutions of 100, 33, 11, 3.7 μM prostratin were made and added to cells at final concentrations of 10 μM, 3.3 μM, 1.1 μM, and 0.37 μM (0.4 μM in FIG. 1C), respectively. Samples were mixed by pipetting, returned to a 37° C. incubator with 5% CO2 and 90% humidity for 20 hours, HIV-LTR-driven expression of GFP was assessed by flow cytometry as described above.
In order to test a possible synergistic effect of additional histone deacetylase inhibitors, the effect of valproic acid in combination with prostratin was analyzed. J-Lat6.3kRed2 cells were adjusted to 1×10^6 cells/ml. 80 μl cell aliquots were pipetted in a 96-well u-bottomed plate. […] HIV-LTR-driven expression of GFP was assessed by flow cytometry as described above.

[5] = tested on: latent HIV expression in J-Lat 9.2 cells; test: Tat transfection assay, latent HIV-driven GFP expression in J-Lat 9.2 cells; format: cell-based; settings: FLAG-Tat transfected J-Lat 9.2 cells (FIG. 6); result similar to Example 6
[6] = concentration of >500 nM for more than 2 days; cited from earlier work
[7] = cited from earlier work
[8] = co-administration of 100 nM TSA with 2 μM prostratin

## CC1=C[C@H]2[C@@]3(O)[C@H](C)C[C@]4(OC(=O)Cc5ccccc5)C([C@@H]3C=C(CO)C[C@]2(O)C1=O)C4(C)C (stereo partly shown) [DPP, 12-deoxyphorbol 13-phenylacetate]
Latent HIV expression
  potency relative to prostratin: 20-40 fold

## CC(/C=C/C(=O)NO)=C\[C@@H](C)C(=O)c1ccc(N(C)C)cc1 [TSA, [R-(E,E)]-7-[4-(Dimethylamino)phenyl]-N-hydroxy-4,6-dimethyl-7-oxo-2,4-heptadienamide]
J-Lat 6.3 cells; [8]
  effect on prostratin-induced cell death: almost completely inhibited
J-Lat 8.4 T-cells; [8]
  effect on prostratin-induced cell death: almost completely inhibited
[1]; TSA 100 nM administered alone
  activation of latent HIV expression (GFP-positive cells): no significant effect
[1]; TSA 100 nM with prostratin 2 μM, J-Lat 6.3 cells (FIG. 1A)
  potentiation of the effect of prostratin on latent HIV expression: 5-6 fold
J-Lat6.3kRed2 cells; TSA with prostratin up to 10 μM, about 20 hours, J-Lat6.3kRed2 cells (FIG. 2C)
  effect on prostratin-induced cell death: inhibited prostratin-induced cell death
[2]
  effect on Tat-induced latent HIV-driven expression of GFP: strongly enhanced
[3]; TSA 100 nM administered alone
  activation of latent HIV expression (GFP-positive cells): no significant effect
[3]; TSA 100 nM with prostratin 2 μM, J-Lat 8.4 T-cells (FIG. 1B)
  potentiation of the effect of prostratin on latent HIV expression: 6-7 fold
[4]; 370 (400) nM TSA in combination with 0.4 μM prostratin, 20 hours, J-Lat6.3kRed2 cells (FIG. 1C)
  synergistic effect on activation of latent HIV expression: about 16 fold
[4]; TSA 100-400 nM with prostratin 0.37-10 μM, 20 hours, J-Lat6.3kRed2 cells
  effect on the activation of latent HIV expression: drastic effect
[5]
  activation of expression of latent HIV (GFP) together with Tat: Synergizes with Tat

## CC(=O)O[C@@]12C[C@@H](C)[C@@]3(O)[C@@H](C=C(CO)C[C@]4(O)C(=O)C(C)=C[C@@H]34)[C@@H]1C2(C)C [prostratin, 12-deoxyphorbol 13-acetate]
J-Lat 6.3 cells; 2 μM prostratin, incubated 36 hours (FIG. 2A)
  prostratin-induced cell death (cells): about 50%
J-Lat 8.4 T-cells; 2 μM prostratin, incubated 36 hours (FIG. 2B)
  prostratin-induced cell death (cells): about 50%
[1]; prostratin 2 μM alone
  activation of latent HIV expression (GFP-positive cells): induced the activation of latent HIV expression
[3]; prostratin 2 μM alone
  activation of latent HIV expression (GFP-positive cells): induced the activation of latent HIV expression
[6]
  toxicity (growth arrest and cell death): substantial growth arrest and cell death

## CCCC(CCC)C(=O)O [valproic acid, 2-propylpentanoic acid]
J-Lat6.3kRed2 cells; valproic acid at all tested concentrations (0.3-3 mM), prostratin 10 μM, J-Lat6.3kRed2 cells (FIG. 4)
  effect on prostratin-induced cell death: blocked prostratin-induced cell death
[7]; after a single oral dose
  time of peak serum levels: 1 to 4 h
[7]; in vivo
  serum half-life: 6 to 16 h
[7]; oral
  absorption after oral administration: rapidly absorbed
[4]; valproic acid 0.3 mM with prostratin 0.37 μM, 18 hours, J-Lat6.3kRed2 cells (FIG. 3)
  potentiation of the effect of prostratin on latent HIV expression: 6-7 fold

## TNF-α
[2]; 30-minute pulse treatment of TNF-α, without Tat, J-Lat 6.3 cells
  expression of latent HIV (GFP): weak expression
[2]
  effect on Tat-induced latent HIV-driven expression of GFP: strongly enhanced
[5]
  activation of expression of latent HIV (GFP) together with Tat: Synergizes with Tat
